From patent publication US7071193B2, “7-amino-2-alkylthiopteridin-4-yl-amines for the treatment of chemokine-related diseases” (AstraZeneca AB, priority 2000, dated 2006)

Structure (SMILES)	melting point
CC[C@H](CO)Nc1nc(SCc2cccc(F)c2F)nc2nc(N)cnc12 [Example 4, (2R)-2-[[7-Amino-2-[[(2,3-difluorophenyl)methyl]thio]-4-pteridinyl]amino]-1-butanol]	185 to 189 °C
CC(CO)(CO)Nc1nc(SCc2cccc(F)c2F)nc2nc(N)cnc12 [Example 5, 2-[[7-Amino-2-[[(2,3-difluorophenyl)methyl]thio]-4-pteridinyl]amino]-2-methyl-1,3-propanediol]	220 to 227 °C
Nc1cnc2c(NC(CO)CO)nc(SCc3cccc(F)c3F)nc2n1 [Example 2, 2-[[7-amino-2-[[(2,3-difluorophenyl)methyl]thio]-4-pteridinyl]amino]-1,3-propanediol]	251 to 253 °C
C[C@H](CO)Nc1nc(SCc2cccc(Cl)c2F)nc2nc(N)cnc12 [Example 13, (2R)-2-[[7-amino-2-[[(3-chloro-2-fluorophenyl)methyl]thio]-4-pteridinyl]amino]-1-propanol]	224 to 226 °C
